SMILES strings stand for the structures.

The IC50 is the point on the concentration scale where inhibition reaches its midpoint.

Experiment [1] has as its target T1, Full-length human MNK1 (Homo sapiens, UniProt Q9BUB5, T385D).
T1 construct: GST (N); purchased Carna Biosciences 02-145; host or cells: baculovirus expression system
Kind of experiment: MNK1 biochemical IC50 assay (Caliper Mobility Shift Assay). The conditions noted are these: read-out: P(IC50) MNK1 (converted).

For experiment [2], the system named is phosphorylation of eIF4E at ser209 in MV4.11 cell line. The experiment is described as follows: MNK cellular activity phospho-eIF4E detection assay (Alphascreen Surefire). The experiment is classed as cell-based. The conditions noted are these: Homo sapiens; MV4.11 cell line, phospho-eIF4E (ser209) Alphascreen Surefire; read-out: P(IC50) elF4E (converted). The method, boiled down: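 AlphaScreen SureFire sandwich-immunoassay readout of phospho-eIF4E Ser209 in lysed MV4.11 cells; acceptor then donor beads, each 1.5 hr at room temperature. Signal normalised to untreated DMSO-only controls; duplicate curves, values averaged over at least 2 independent experiments.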

Experiment [3] addresses T2, Full-length human MNK2 (Homo sapiens, UniProt Q9HBH9, T379D).
T2 construct: GST (N); purchased Carna Biosciences 02-146; host or cells: baculovirus expression system
Kind of experiment: MNK2 biochemical IC50 assay (Caliper Mobility Shift Assay). The conditions noted are these: read-out: P(IC50) MNK2 (converted).

T2 sequence (Q9HBH9 whole entry T379D): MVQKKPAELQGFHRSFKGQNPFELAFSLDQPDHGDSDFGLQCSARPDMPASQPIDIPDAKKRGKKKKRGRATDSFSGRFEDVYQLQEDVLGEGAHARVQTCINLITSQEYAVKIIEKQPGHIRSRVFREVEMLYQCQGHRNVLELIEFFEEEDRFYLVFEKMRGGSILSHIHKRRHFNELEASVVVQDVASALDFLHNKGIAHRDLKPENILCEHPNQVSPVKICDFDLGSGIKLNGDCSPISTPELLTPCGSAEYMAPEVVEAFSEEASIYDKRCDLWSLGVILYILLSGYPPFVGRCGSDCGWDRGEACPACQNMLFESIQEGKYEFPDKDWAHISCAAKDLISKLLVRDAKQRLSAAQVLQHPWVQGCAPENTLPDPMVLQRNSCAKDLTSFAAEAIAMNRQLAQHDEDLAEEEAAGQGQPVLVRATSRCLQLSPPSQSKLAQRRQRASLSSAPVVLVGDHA
T1 sequence (Q9BUB5 1-424 isoform Q9BUB5-2 T344D): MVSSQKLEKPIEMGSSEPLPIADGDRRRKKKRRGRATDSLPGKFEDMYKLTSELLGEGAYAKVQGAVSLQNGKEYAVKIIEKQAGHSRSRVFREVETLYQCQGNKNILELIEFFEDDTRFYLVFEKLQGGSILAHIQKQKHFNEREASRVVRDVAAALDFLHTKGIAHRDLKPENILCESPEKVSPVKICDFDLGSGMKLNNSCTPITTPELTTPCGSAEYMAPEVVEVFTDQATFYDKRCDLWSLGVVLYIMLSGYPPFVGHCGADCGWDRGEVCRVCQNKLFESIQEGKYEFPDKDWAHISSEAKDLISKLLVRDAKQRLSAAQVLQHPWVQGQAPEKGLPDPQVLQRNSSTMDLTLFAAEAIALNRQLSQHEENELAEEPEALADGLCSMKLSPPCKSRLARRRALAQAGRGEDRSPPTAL

As for `O=C(NC1CCOCC1)c1nc2c(N3CCc4cnccc43)ncnc2s1` [Example 43, 7-(2,3-Dihydro-1H-pyrrolo[3,2-c]pyridin-1-yl)-N-(tetrahydro-2H-pyran-4-yl)[1,3]thiazolo[5,4-d]pyrimidine-2-carboxamide], the IC50 in experiment [1] is 39.8 nM; in experiment [2], 25.1 nM; in experiment [3] it was 31.6 nM.
For `NCCC1CN(c2ncnc3sc(C(=O)NC4CCOCC4)nc23)c2ccccc21` (stereo not drawn) [Example 111, 7-[3-(2-aminoethyl)indolin-1-yl]-N-tetrahydropyran-4-yl-thiazolo[5,4-d]pyrimidine-2-carboxamide], the concentration for half-maximal inhibition (IC50) in experiment [1] was 5.01 nM; in experiment [2] it was 63.1 nM; in experiment [3] it was 6.31 nM.
In the same order, the values of `CN1CCC(NC(=O)c2nc3c(N4CCc5cc(F)ccc54)ncnc3s2)CC1` [Example 67, 7-(5-fluoroindolin-1-yl)-N-(1-methyl-4-piperidyl)thiazolo[5,4-d]pyrimidine-2-carboxamide] are 3.98 nM, 3.98 nM and 3.16 nM.
Consider `O=C(NCC(O)CO)c1nc2c(N3CCc4ccccc43)ncnc2s1` (stereo not drawn) [Example 104], for which the IC50 is 20 nM in experiment [1], 10 nM in experiment [2] and 12.6 nM in experiment [3].
In the same order, the values of `O=C(NC1CCOCC1)c1nc2c(N3CC4(CCOCC4)c4ccccc43)ncnc2s1` [Example 108, 7-spiro[indoline-3,4′-tetrahydropyran]-1-yl-N-tetrahydropyran-4-yl-thiazolo[5,4-d]pyrimidine-2-carboxamide] are 63.1 nM, 31.6 nM and 39.8 nM.
In the same order, the values of `CC1Cc2ccccc2N1c1ncnc2sc(C(=O)NC3CCOCC3)nc12` (stereo not drawn) [Example 122, 7-(2-Methylindolin-1-yl)-N-tetrahydropyran-4-yl-thiazolo[5,4-d]pyrimidine-2-carboxamide] are 39.8 nM, 50.1 nM and 31.6 nM.
As for `CNC(=O)c1nc2c(N3CCc4cc(C(F)(F)F)ccc43)ncnc2s1` [Example 158], the IC50 in experiment [1] is 316 nM; in experiment [2] it was 501 nM; in experiment [3], 126 nM.
With `OCc1nc2c(N3CCc4cc(F)ccc43)ncnc2s1` [Example 81, [7-(5-Fluoroindolin-1-yl)thiazolo[5,4-d]pyrimidin-2-yl]methanol], the results for the IC50 in experiment [1], in experiment [2] and in experiment [3] were 39.8 nM, 100 nM and 20 nM, respectively.
For the compound `O=C(NCCN1CCNCC1)c1nc2c(N3CCc4cc(F)ccc43)ncnc2s1` [Example 79, 7-(5-fluoroindolin-1-yl)-N-(2-piperazin-1-ylethyl)thiazolo[5,4-d]pyrimidine-2-carboxamide], the 50% inhibitory concentration (IC50) in experiment [1] was 3.16 nM; in experiment [2], 10 nM; in experiment [3] it was 3.16 nM.
Consider `O=C(NCC1CCNCC1)c1nc2c(Nc3ccc(F)cc3OC(CF)CF)ncnc2s1` [Example 52, 7-[4-fluoro-2-[2-fluoro-1-(fluoromethyl)ethoxy]anilino]-N-(4-piperidylmethyl)thiazolo[5,4-d]pyrimidine-2-carboxamide], for which the values for the half-inhibitory concentration (IC50) in experiment [1], in experiment [2] and in experiment [3] were 63.1 nM, 100 nM and 63.1 nM, respectively.
On to `CN1CCN(C(=O)c2nc3c(N4CCc5cc(F)ccc54)ncnc3s2)CC1` [Example 65, [7-(5-fluoroindolin-1-yl)thiazolo[5,4-d]pyrimidin-2-yl]-(4-methylpiperazin-1-yl)methanone], for which the values for the IC50 in experiment [1], in experiment [2] and in experiment [3] were 79.4 nM, 251 nM and 79.4 nM, respectively.
On to `CC1CN(c2ncnc3sc(C(=O)NC4CCOCC4)nc23)c2ccccc21` (stereo not drawn) [Example 125, 7-(3-Methylindolin-1-yl)-N-tetrahydropyran-4-yl-thiazolo[5,4-d]pyrimidine-2-carboxamide], for which the IC50 was 3.16 nM in experiment [1], 3.98 nM in experiment [2] and 3.98 nM in experiment [3].
Consider `CN(C)CCCNc1nc2c(N3CCc4cc(F)ccc43)ncnc2s1` [Example 85, N1-(7-(5-fluoroindolin-1-yl)thiazolo[5,4-d]pyrimidin-2-yl)-N3,N3-dimethylpropane-1,3-diamine], for which the concentration for half-maximal inhibition (IC50) is 10 nM in experiment [1], 100 nM in experiment [2] and 20 nM in experiment [3].
Turning to `CNCCC1CN(c2ncnc3sc(C(=O)NC4CCOCC4)nc23)c2ccccc21` (stereo not drawn) [Example 115, 7-[3-[2-(Methylamino)ethyl]indolin-1-yl]-N-tetrahydropyran-4-yl-thiazolo[5,4-d]pyrimidine-2-carboxamide], the IC50 in experiment [1] was 31.6 nM; in experiment [2], 126 nM; in experiment [3] it was 15.8 nM.
For the compound `CC(C)Oc1ccccc1Nc1ncnc2sc(C(=O)NCCCN(C)C)nc12` [Example 23, N-[3-(Dimethylamino)propyl]-7-(2-isopropoxyanilino)thiazolo[5,4-d]pyrimidine-2-carboxamide], the IC50 is 100 nM in experiment [1], 63.1 nM in experiment [2] and 63.1 nM in experiment [3].
Turning to `CNCCC1(C)CN(c2ncnc3sc(C(=O)NC4CCOCC4)nc23)c2ccccc21` (stereo not drawn) [Example 118, 7-[3-Methyl-3-[2-(methylamino)ethyl]indolin-1-yl]-N-tetrahydropyran-4-yl-thiazolo[5,4-d]pyrimidine-2-carboxamide], the values for the half-maximal inhibitory concentration (IC50) in experiment [1], in experiment [2] and in experiment [3] were 126 nM, 251 nM and 158 nM, respectively.
In the same order, the values of `CC1(CCO)CN(c2ncnc3sc(C(=O)NC4CCOCC4)nc23)c2ccccc21` (stereo not drawn) [Example 113, 7-[3-(2-hydroxyethyl)-3-methyl-indolin-1-yl]-N-tetrahydropyran-4-yl-thiazolo[5,4-d]pyrimidine-2-carboxamide] are 39.8 nM, 39.8 nM and 39.8 nM.
For `O=C(NCC1CCNCC1)c1nc2c(Nc3ccc(F)cc3OC3CCCC3)ncnc2s1` [Example 51, 7-[2-(cyclopentoxy)-4-fluoro-anilino]-N-(4-piperidylmethyl)thiazolo[5,4-d]pyrimidine-2-carboxamide], the results for the IC50 in experiment [1], in experiment [2] and in experiment [3] were 126 nM, 126 nM and 100 nM, respectively.
In the case of `CC(C)Oc1cc(F)ccc1Nc1ncnc2sc(C(=O)NCC(O)CO)nc12` (stereo not drawn) [Example 12, N-(2,3-dihydroxypropyl)-7-(4-fluoro-2-isopropoxy-anilino)thiazolo[5,4-d]pyrimidine-2-carboxamide], the figures for the IC50 in experiment [1], in experiment [2] and in experiment [3] were 126 nM, 50.1 nM and 63.1 nM, respectively.
On the same counts, the results for `C[C@H]1Cc2ccccc2N1c1ncnc2sc(C(=O)NC3CCNCC3)nc12` [Example 132, 7-[(2S)-2-methylindolin-1-yl]-N-(4-piperidyl) thiazolo[5,4-d]pyrimidine-2-carboxamide] are 20 nM, 25.1 nM and 15.8 nM.
Consider `CC(C)Oc1cc(F)ccc1Nc1ncnc2sc(C(=O)N3CC4(CNC4)C3)nc12` [Example 7, 2,6-diazaspiro[3.3]heptan-2-yl-[7-(4-fluoro-2-isopropoxy-anilino)thiazolo[5,4-d]pyrimidin-2-yl]methanone], for which the concentration for half-maximal inhibition (IC50) in experiment [1] was 251 nM; in experiment [2] it was 316 nM; in experiment [3] it was 251 nM.
Take `CN(C)CCNC(=O)c1nc2c(N3CCc4cc(F)ccc43)ncnc2s1` [Example 73, N-[2-(dimethylamino)ethyl]-7-(5-fluoroindolin-1-yl)thiazolo[5,4-d]pyrimidine-2-carboxamide]: the half-maximal inhibitory concentration (IC50) in experiment [1] was 5.01 nM; in experiment [2], 15.8 nM; in experiment [3], 5.01 nM.
For the compound `CN1CCN(c2ncnc3sc(C(=O)NCC4CCNCC4)nc23)c2ccc(F)cc21` [Example 57, 7-(6-fluoro-4-methyl-2,3-dihydroquinoxalin-1-yl)-N-(4-piperidylmethyl)thiazolo[5,4-d]pyrimidine-2-carboxamide], the IC50 in experiment [1], in experiment [2] and in experiment [3] was 251 nM each time.
Take `CN(C)CCC1CN(c2ncnc3sc(C(=O)NC4CCOCC4)nc23)c2ccc(F)cc21` (stereo not drawn) [Example 148, 7-[3-[2-(dimethyl-amino)ethyl]-5-fluoro-indolin-1-yl]-N-tetrahydro-pyran-4-yl-thiazolo[5,4-d]pyrimidine-2-carboxamide]: the 50% inhibitory concentration (IC50) in experiment [1] was 50.1 nM; in experiment [2], 63.1 nM; in experiment [3], 63.1 nM.
As to `CNCCC1CN(c2ncnc3sc(C(=O)NC4CCOCC4)nc23)c2ccc(F)cc21` (stereo not drawn) [Example 147, 7-[5-fluoro-3-[2-(methyl-amino)ethyl]indolin-1-yl]-N-tetrahydropyran-4-yl-thiazolo[5,4-d]pyrimidine-2-carboxamide], the IC50 in experiment [1] was 7.94 nM; in experiment [2], 15.8 nM; in experiment [3], 10 nM.
In the same order, the values of `O=C(NC1CCOCC1)c1nc2c(N3CC(CCN4CCOCC4)c4ccccc43)ncnc2s1` (stereo not drawn) [Example 154, 7-[3-(2-morpholinoethyl)indolin-1-yl]-N-tetrahydropyran-4-yl-thiazolo[5,4-d]pyrimidine-2-carboxamide] are 79.4 nM, 100 nM and 79.4 nM.
On the same counts, the results for `CC1(CCO)CN(c2ncnc3sc(C(=O)NCC4CCNCC4)nc23)c2ccccc21` (stereo not drawn) [Example 144] are 12.6 nM, 20 nM and 15.8 nM.
As to `O=C(NC1CCOCC1)c1nc2c(N3CC(CCN4CCCC4)c4cc(F)ccc43)ncnc2s1` (stereo not drawn) [Example 149, 7-[5-fluoro-3-(2-pyrrolidin-1-ylethyl)indolin-1-yl]-N-tetrahydropyran-4-yl-thiazolo[5,4-d]pyrimidine-2-carboxamide], the IC50 in experiment [1] was 31.6 nM; in experiment [2], 63.1 nM; in experiment [3], 50.1 nM.

Source of the values: patent US10669284B2, “Fused thiazolopyrimidine derivatives as MNKS inhibitors” (LIFEARC, priority 2015, dated 2020).
